How the values were obtained:
Assay in all cases: KinaseProfiler off-target kinase profiling
Assay type in all cases: biochemical
PKCgamma = target: T1, PKCgamma (Homo sapiens, UniProt P05129); details: 10 μM, ATP near Km
T1 construct: purchased Millipore, Inc. (KinaseProfiler service)
How it was run: (§1)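 ATP concentrations approximate the Km of each kinase, and the compound is present at 10 μM. Assays are done in duplicate, with the mean residual activity given as percent of control.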

Yes = target: T2, Yes (Homo sapiens, UniProt P07947); details: 10 μM, ATP near Km
T2 construct: purchased Millipore, Inc. (KinaseProfiler service)
How it was run: as §1

SGK3 = target: T3, SGK3 (Homo sapiens, UniProt Q96BR1); details: 10 μM, ATP near Km
T3 construct: purchased Millipore, Inc. (KinaseProfiler service)
How it was run: as §1

p38gamma = target: T4, p38gamma (Homo sapiens, UniProt P53778); details: 10 μM, ATP near Km
T4 construct: purchased Millipore, Inc. (KinaseProfiler service)
How it was run: as §1

Plk2 = target: T5, Plk2 (Homo sapiens, UniProt Q9NYY3); details: 10 μM, ATP near Km
T5 construct: purchased Millipore (KinaseProfiler service)
How it was run: as §1

MAPKAP-K2 = target: T6, MAPKAP-K2 (Homo sapiens, UniProt P49137); details: 10 μM, ATP near Km
T6 construct: purchased Millipore, Inc. (KinaseProfiler service)
How it was run: as §1

SRPK2 = target: T7, SRPK2 (Homo sapiens, UniProt P78362); details: 10 μM, ATP near Km
T7 construct: purchased Millipore, Inc. (KinaseProfiler service)
How it was run: as §1

LIMK1 = target: T8, LIMK1 (Homo sapiens, UniProt P53667); details: 10 μM, ATP near Km
T8 construct: purchased Millipore, Inc. (KinaseProfiler service)
How it was run: as §1

KDR = target: T9, KDR (Homo sapiens, UniProt P35968); details: 10 μM, ATP near Km
T9 construct: purchased Millipore, Inc. (KinaseProfiler service)
How it was run: as §1

MSK1 = target: T10, MSK1 (Homo sapiens, UniProt O75582); details: 10 μM, ATP near Km
T10 construct: purchased Millipore, Inc. (KinaseProfiler service)
How it was run: as §1

p70S6K = target: T11, p70S6K (Homo sapiens, UniProt P23443); details: 10 μM, ATP near Km
T11 construct: purchased Millipore, Inc. (KinaseProfiler service)
How it was run: as §1

IGF-1R Activated = target: T12, IGF-1R Activated (Homo sapiens, UniProt P08069); details: 10 μM, ATP near Km
T12 construct: purchased Millipore, Inc. (KinaseProfiler service)
How it was run: as §1

EphA7 = target: T13, EphA7 (Homo sapiens, UniProt Q15375); details: 10 μM, ATP near Km
T13 construct: purchased Millipore, Inc. (KinaseProfiler service)
How it was run: as §1

MELK = target: T14, MELK (Homo sapiens, UniProt Q14680); details: 10 μM, ATP near Km
T14 construct: purchased Millipore, Inc. (KinaseProfiler service)
How it was run: as §1

CAMK1 = target: T15, CAMK1 (Homo sapiens, UniProt Q14012); details: 10 μM, ATP near Km
T15 construct: purchased Millipore, Inc. (KinaseProfiler service)
How it was run: as §1

CAMK2g = target: T16, CAMK2g (Homo sapiens, UniProt Q13555); details: 10 μM, ATP near Km
T16 construct: purchased Millipore, Inc. (KinaseProfiler service)
How it was run: as §1

KIT = target: T17, KIT (Homo sapiens, UniProt P10721); details: 10 μM, ATP near Km
T17 construct: purchased Millipore, Inc. (KinaseProfiler service)
How it was run: as §1

CLK3 = target: T18, CLK3 (Homo sapiens, UniProt P49761); details: 10 μM, ATP near Km
T18 construct: purchased Millipore, Inc. (KinaseProfiler service)
How it was run: as §1

ULK2 = target: T19, ULK2 (Homo sapiens, UniProt Q8IYT8); details: 10 μM, ATP near Km
T19 construct: purchased Millipore, Inc. (KinaseProfiler service)
How it was run: as §1

CHK2 = target: T20, CHK2 (Homo sapiens, UniProt O96017); details: 10 μM, ATP near Km
T20 construct: purchased Millipore, Inc. (KinaseProfiler service)
How it was run: as §1

PAK6 = target: T21, PAK6 (Homo sapiens, UniProt Q9NQU5); details: 10 μM, ATP near Km
T21 construct: purchased Millipore, Inc. (KinaseProfiler service)
How it was run: as §1

NEK11 = target: T22, NEK11 (Homo sapiens, UniProt Q8NG66); details: 10 μM, ATP near Km
T22 construct: purchased Millipore, Inc. (KinaseProfiler service)
How it was run: as §1

CDK7/cyclinH/MAT1 = target: T23, CDK7/cyclinH/MAT1 (Homo sapiens, UniProt P50613); details: 10 μM, ATP near Km
T23 construct: purchased Millipore, Inc. (KinaseProfiler service)
How it was run: as §1

Fes = target: T24, Fes (Homo sapiens, UniProt P07332); details: 10 μM, ATP near Km
T24 construct: purchased Millipore, Inc. (KinaseProfiler service)
How it was run: as §1

NEK7 = target: T25, NEK7 (Homo sapiens, UniProt Q8TDX7); details: 10 μM, ATP near Km
T25 construct: purchased Millipore, Inc. (KinaseProfiler service)
How it was run: as §1

CDK2/cyclinA = target: T26, CDK2/cyclinA (Homo sapiens, UniProt P24941); details: 10 μM, ATP near Km
T26 construct: purchased Millipore, Inc. (KinaseProfiler service)
How it was run: as §1

BrSK2 = target: T27, BrSK2 (Homo sapiens, UniProt Q8IWQ3); details: 10 μM, ATP near Km
T27 construct: purchased Millipore, Inc. (KinaseProfiler service)
How it was run: as §1

ITK = target: T28, ITK (Homo sapiens, UniProt Q08881); details: 10 μM, ATP near Km
T28 construct: purchased Millipore, Inc. (KinaseProfiler service)
How it was run: as §1

NEK3 = target: T29, NEK3 (Homo sapiens, UniProt P51956); details: 10 μM, ATP near Km
T29 construct: purchased Millipore, Inc. (KinaseProfiler service)
How it was run: as §1

EphA5 = target: T30, EphA5 (Homo sapiens, UniProt P54756); details: 10 μM, ATP near Km
T30 construct: purchased Millipore, Inc. (KinaseProfiler service)
How it was run: as §1

ARK5 = target: T31, ARK5 (Homo sapiens, UniProt O60285); details: 10 μM, ATP near Km
T31 construct: purchased Millipore, Inc. (KinaseProfiler service)
How it was run: as §1

TAO1 = target: T32, TAO1 (Homo sapiens, UniProt Q7L7X3); details: 10 μM, ATP near Km
T32 construct: purchased Millipore, Inc. (KinaseProfiler service)
How it was run: as §1

Met = target: T33, Met (Homo sapiens, UniProt P08581); details: 10 μM, ATP near Km
T33 construct: purchased Millipore, Inc. (KinaseProfiler service)
How it was run: as §1

TLK2 = target: T34, TLK2 (Homo sapiens, UniProt Q86UE8); details: 10 μM, ATP near Km
T34 construct: purchased Millipore, Inc. (KinaseProfiler service)
How it was run: as §1

DMPK = target: T35, DMPK (Homo sapiens, UniProt Q09013); details: 10 μM, ATP near Km
T35 construct: purchased Millipore, Inc. (KinaseProfiler service)
How it was run: as §1

MKK7beta = target: T36, MKK7beta (Homo sapiens, UniProt O14733); details: 10 μM, ATP near Km, POC verified as a false positive (footnote)
T36 construct: purchased Millipore, Inc. (KinaseProfiler service)
How it was run: as §1

CK1gamma1 = target: T37, CK1gamma1 (Homo sapiens, UniProt Q9HCP0); details: 10 μM, ATP near Km
T37 construct: purchased Millipore, Inc. (KinaseProfiler service)
How it was run: as §1

LKB1 = target: T38, LKB1 (Homo sapiens, UniProt Q15831); details: 10 μM, ATP near Km
T38 construct: purchased Millipore, Inc. (KinaseProfiler service)
How it was run: as §1

Rse = target: T39, Rse (Homo sapiens, UniProt Q06418); details: 10 μM, ATP near Km
T39 construct: purchased Millipore (KinaseProfiler service)
How it was run: as §1

MSSK1 = target: T40, MSSK1 (Homo sapiens, UniProt Q9UPE1); details: 10 μM, ATP near Km
T40 construct: purchased Millipore, Inc. (KinaseProfiler service)
How it was run: as §1

CLK2 = target: T41, CLK2 (Homo sapiens, UniProt P49760); details: 10 μM, ATP near Km
T41 construct: purchased Millipore, Inc. (KinaseProfiler service)
How it was run: as §1

T38 sequence (Q15831 whole entry): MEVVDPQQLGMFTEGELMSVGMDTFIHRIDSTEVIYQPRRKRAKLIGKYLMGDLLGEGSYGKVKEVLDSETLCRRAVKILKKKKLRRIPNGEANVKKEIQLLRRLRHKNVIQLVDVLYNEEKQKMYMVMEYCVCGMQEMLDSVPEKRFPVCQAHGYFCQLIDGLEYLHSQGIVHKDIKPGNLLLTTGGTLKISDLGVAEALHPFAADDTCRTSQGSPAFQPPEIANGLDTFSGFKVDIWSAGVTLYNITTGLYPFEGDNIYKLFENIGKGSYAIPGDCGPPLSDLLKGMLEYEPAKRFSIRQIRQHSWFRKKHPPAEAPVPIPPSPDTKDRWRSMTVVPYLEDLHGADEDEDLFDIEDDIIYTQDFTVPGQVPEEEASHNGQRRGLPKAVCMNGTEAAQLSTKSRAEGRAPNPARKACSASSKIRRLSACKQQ
T38 sequence (Q7RTN6 whole entry partner): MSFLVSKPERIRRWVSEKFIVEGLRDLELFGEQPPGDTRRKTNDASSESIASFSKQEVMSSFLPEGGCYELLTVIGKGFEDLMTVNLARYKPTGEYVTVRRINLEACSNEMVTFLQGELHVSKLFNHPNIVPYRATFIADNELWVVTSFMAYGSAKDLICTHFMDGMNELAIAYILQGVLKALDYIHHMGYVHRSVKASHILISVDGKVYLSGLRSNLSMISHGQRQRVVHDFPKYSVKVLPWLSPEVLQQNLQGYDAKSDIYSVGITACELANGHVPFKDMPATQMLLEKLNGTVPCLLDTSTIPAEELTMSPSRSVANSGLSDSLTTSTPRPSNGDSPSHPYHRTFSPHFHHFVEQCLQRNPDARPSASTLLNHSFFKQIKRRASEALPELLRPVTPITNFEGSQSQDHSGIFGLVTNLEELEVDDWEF
T38 sequence (Q9Y376 whole entry partner): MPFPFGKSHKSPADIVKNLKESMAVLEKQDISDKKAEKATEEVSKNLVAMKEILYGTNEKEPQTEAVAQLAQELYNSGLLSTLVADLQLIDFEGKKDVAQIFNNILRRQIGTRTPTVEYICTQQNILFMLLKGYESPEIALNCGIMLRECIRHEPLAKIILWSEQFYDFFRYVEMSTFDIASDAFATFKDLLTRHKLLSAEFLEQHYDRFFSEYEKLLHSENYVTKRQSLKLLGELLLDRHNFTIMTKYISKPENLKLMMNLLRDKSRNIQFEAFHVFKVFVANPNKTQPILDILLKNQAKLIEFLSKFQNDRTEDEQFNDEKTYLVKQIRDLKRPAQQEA
T35 sequence (Q09013 whole entry): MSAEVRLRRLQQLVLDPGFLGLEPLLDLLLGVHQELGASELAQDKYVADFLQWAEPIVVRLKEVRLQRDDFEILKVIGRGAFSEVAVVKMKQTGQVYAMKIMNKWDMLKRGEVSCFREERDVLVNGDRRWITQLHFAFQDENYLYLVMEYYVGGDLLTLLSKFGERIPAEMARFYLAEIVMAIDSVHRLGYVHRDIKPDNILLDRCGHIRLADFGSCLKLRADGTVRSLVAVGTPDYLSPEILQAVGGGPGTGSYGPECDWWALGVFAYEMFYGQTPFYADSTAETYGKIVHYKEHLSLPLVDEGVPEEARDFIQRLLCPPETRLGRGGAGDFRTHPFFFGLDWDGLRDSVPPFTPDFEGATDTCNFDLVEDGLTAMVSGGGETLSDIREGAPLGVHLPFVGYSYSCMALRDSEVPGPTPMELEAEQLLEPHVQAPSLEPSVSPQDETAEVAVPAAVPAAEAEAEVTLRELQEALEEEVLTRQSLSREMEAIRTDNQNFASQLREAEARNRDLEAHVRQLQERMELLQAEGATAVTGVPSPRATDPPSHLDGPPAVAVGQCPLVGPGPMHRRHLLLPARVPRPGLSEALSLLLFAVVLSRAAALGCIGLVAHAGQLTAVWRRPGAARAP
T29 sequence (P51956 whole entry): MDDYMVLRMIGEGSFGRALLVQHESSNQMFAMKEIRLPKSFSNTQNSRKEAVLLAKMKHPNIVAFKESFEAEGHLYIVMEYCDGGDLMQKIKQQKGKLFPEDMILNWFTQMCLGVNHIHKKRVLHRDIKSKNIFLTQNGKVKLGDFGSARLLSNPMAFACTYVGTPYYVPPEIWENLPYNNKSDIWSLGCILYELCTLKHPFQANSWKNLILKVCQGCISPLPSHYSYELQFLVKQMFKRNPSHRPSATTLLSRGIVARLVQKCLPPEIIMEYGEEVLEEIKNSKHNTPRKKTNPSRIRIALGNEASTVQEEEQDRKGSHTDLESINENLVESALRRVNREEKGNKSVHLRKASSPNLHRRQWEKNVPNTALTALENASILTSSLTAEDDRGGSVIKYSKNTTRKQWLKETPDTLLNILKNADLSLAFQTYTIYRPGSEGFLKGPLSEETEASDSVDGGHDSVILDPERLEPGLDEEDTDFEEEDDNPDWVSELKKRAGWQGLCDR
T23 sequence (P50613 whole entry): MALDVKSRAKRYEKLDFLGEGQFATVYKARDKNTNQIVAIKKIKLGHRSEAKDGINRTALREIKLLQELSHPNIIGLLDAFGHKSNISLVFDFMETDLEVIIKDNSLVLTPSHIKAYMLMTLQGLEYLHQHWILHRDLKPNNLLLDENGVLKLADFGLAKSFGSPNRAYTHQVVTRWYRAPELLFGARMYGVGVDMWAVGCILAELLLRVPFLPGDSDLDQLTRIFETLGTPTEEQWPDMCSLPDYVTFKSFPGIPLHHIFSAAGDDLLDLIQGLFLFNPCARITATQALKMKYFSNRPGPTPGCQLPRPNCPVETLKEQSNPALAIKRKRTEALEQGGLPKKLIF
T23 sequence (P51946 whole entry partner): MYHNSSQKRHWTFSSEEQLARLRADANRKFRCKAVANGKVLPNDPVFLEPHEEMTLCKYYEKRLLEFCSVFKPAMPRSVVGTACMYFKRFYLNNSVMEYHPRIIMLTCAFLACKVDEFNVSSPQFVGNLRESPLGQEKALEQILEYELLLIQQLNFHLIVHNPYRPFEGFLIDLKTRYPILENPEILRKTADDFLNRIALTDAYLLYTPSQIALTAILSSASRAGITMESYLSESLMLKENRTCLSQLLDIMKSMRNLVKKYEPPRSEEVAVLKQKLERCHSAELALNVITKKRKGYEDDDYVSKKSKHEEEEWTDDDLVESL
T23 sequence (P51948 whole entry partner): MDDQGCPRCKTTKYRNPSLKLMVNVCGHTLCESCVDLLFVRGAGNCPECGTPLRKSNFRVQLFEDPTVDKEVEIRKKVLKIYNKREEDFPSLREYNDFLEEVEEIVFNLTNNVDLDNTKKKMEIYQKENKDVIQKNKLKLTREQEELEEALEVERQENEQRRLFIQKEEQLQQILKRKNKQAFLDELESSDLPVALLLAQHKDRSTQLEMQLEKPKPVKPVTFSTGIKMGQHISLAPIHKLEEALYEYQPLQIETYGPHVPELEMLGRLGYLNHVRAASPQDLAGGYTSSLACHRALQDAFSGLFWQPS
T36 sequence (O14733 whole entry): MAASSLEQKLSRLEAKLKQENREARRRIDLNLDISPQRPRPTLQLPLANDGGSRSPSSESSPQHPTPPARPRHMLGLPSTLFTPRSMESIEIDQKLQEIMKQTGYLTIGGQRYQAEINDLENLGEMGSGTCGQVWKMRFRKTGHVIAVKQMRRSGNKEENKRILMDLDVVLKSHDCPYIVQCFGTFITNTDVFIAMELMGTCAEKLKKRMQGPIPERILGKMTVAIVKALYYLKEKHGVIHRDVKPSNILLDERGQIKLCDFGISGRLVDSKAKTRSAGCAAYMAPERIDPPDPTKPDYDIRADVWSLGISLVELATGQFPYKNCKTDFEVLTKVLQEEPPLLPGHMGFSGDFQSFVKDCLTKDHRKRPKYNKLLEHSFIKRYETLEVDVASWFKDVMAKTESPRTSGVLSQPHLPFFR
T39 sequence (Q06418 41-890): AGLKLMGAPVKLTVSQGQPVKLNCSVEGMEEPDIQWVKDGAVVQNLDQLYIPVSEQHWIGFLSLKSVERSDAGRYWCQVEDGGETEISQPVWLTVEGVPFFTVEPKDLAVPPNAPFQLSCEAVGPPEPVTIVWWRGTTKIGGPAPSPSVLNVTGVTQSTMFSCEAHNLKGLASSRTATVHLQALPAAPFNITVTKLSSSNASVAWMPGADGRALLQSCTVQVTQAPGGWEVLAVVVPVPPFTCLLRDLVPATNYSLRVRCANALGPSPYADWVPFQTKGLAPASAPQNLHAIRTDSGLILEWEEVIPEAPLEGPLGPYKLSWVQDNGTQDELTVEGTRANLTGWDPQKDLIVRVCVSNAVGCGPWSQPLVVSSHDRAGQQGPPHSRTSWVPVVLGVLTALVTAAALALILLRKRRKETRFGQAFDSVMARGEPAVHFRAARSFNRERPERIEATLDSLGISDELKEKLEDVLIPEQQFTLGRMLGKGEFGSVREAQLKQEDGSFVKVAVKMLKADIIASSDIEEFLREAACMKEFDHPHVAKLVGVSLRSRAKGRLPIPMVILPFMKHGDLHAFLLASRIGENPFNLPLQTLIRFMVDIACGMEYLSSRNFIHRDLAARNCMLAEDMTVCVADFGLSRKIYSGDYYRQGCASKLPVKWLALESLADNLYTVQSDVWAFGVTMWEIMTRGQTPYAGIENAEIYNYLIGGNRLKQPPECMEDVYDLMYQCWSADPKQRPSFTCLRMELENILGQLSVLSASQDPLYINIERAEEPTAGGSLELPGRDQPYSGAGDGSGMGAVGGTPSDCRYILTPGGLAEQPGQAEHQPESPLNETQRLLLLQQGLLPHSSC
T4 sequence (P53778 whole entry): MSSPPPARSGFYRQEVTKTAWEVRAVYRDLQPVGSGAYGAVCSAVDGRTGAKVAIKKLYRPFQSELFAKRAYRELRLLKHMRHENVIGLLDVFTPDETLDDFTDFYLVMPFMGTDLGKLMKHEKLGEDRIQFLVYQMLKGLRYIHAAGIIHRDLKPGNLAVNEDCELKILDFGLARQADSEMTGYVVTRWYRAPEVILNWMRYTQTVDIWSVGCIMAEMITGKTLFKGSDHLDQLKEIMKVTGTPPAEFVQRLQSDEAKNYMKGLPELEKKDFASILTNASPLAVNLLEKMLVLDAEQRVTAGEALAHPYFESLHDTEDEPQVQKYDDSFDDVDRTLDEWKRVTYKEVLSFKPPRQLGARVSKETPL

## COCCN1C[C@@H](NC(=O)Nc2c(-c3ccccc3)nc3c(C)nccn23)[C@H](c2ccc(F)c(F)c2)C1 [Example 20, 1-((3S,4R)-4-(3,4-difluorophenyl)-1-(2-methoxyethyl)pyrrolidin-3-yl)-3-(8-methyl-2-phenylimidazo[1,2-a]pyrazin-3-yl)urea]
PKCgamma
  Avg. POC: 111 POC
Yes
  Avg. POC: 109 POC
SGK3
  Avg. POC: 109 POC
p38gamma
  Avg. POC: 105.5 POC
Plk2
  Avg. POC: 106 POC
MAPKAP-K2
  Avg. POC: 106.5 POC
SRPK2
  Avg. POC: 100 POC
LIMK1
  Avg. POC: 103 POC
KDR
  Avg. POC: 107 POC
MSK1
  Avg. POC: 121 POC
p70S6K
  Avg. POC: 112 POC
IGF-1R Activated
  Avg. POC: 100 POC
EphA7
  Avg. POC: 104.5 POC
MELK
  Avg. POC: 97.5 POC
CAMK1
  Avg. POC: 105.5 POC
CAMK2g
  Avg. POC: 113 POC
KIT
  Avg. POC: 117.5 POC
CLK3
  Avg. POC: 107 POC
ULK2
  Avg. POC: 109 POC
CHK2
  Avg. POC: 138 POC
PAK6
  Avg. POC: 102 POC
NEK11
  Avg. POC: 109.5 POC
CDK7/cyclinH/MAT1
  Avg. POC: 101.5 POC
Fes
  Avg. POC: 113.5 POC
NEK7
  Avg. POC: 105.5 POC
CDK2/cyclinA
  Avg. POC: 112 POC
BrSK2
  Avg. POC: 116 POC
ITK
  Avg. POC: 122.5 POC
NEK3
  Avg. POC: 103 POC
EphA5
  Avg. POC: 123 POC
ARK5
  Avg. POC: 104 POC
TAO1
  Avg. POC: 106 POC
Met
  Avg. POC: 110 POC
TLK2
  Avg. POC: 105 POC
DMPK
  Avg. POC: 105.5 POC
MKK7beta
  Avg. POC: −2 POC
CK1gamma1
  Avg. POC: 109 POC
LKB1
  Avg. POC: 105 POC
Rse
  Avg. POC: 102.5 POC
MSSK1
  Avg. POC: 108.5 POC
CLK2
  Avg. POC: 106.5 POC

From patent US9790178B2, “Pyrrolidinyl urea, thiourea, guanidine and cyanoguanidine compounds as TrkA kinase inhibitors” (Array BioPharma Inc., priority 2012, dated 2017)
